How the values were obtained:
[1] = system: AGS cells; assay: Cell viability assay (CellTiter-Glo 2.0), AGS; type: cell-based; conditions: Homo sapiens, 72 h, read-out: IC50 (cell growth)
Method: (§1) MCF-7 and AGS cells were seeded at 2.5 × 10^4 cells in 100 µL/well while NCI-N87 was seeded at 5.0 × 10^4 cells in 100 µL/well in opaque-walled 96-well plate. Control wells containing medium (supplemented with 10% FBS and 1% penicillin/streptomycin) without cells to determine background luminescence were also prepared. The cells were left to attach overnight in the plate. Culture medium was aspirated and fresh medium added to the wells before reconstituted extracts of P. dioica (methanol extract, 50% methanol fraction) and isolated compounds (1–3, and quercitrin) at 100, 50, 20, 10 and 5 µg/mL were added to experimental wells. Drug controls (5-fluorouracil and doxorubicin) and vehicle control (0.02% DMSO) wells were also prepared simultaneously, and the plate was incubated in a humidified incubator at 37 °C in an atmosphere of 5% CO2 for 72 h. At the end of the incubation period, the plate and its contents were equilibrated to room temperature for approximately 30 min. A 100 µL volume of CellTiter-Glo 2.0 Reagent (Promega Corporation, Madison, WI) was added to each well. The contents were mixed for 2 min on an orbital shaker to induce cell lysis and the plate was incubated at room temperature for 10 min to stabilize the luminescent signal. Luminescence signal was read using the Synergy HT Plate reader (Biotek, Winooski, VT) and Gen5 1.11 software. The IC50 defined as the concentration that causes 50% inhibition of cell growth after exposure to extract for 72 h was calculated using log (inhibitor) vs. normalized response analysis with GraphPad Prism 7 (GraphPad Software, Inc., La Jolla, CA).

[2] = system: NCI-N87 cells; assay: Cell viability assay (CellTiter-Glo 2.0), NCI-N87; type: cell-based; conditions: Homo sapiens, NCI-N87, 72 h; read-out: IC50 (cell growth)
Method: as §1

[3] = system: oestrogen responsive SEAP reporter gene (ERE) in MCF-7 cells; assay: Oestrogen-responsive SEAP reporter gene assay in transfected MCF-7 cells; type: cell-based, human; conditions: for fold increase in SEAP expression / SEAP reporter gene expression/activity, compound alone: 1 μM; for fold increase in SEAP expression: compound alone; for SEAP reporter gene expression/activity, compound alone: vs. control; for SEAP activity in combination with E2: 1 μM compound + 10 nM E2
Method: In addition to the ERβ binding assay, oestrogenic activity was determined by an oestrogen-responsive reporter gene assay consisting of MCF-7 cells transfected with a construct containing a secreted alkaline phosphatase (SEAP) gene that is induced through an oestrogen response element (ERE). MCF-7 (HTB-22) human breast cancer cells (obtained from American Type Culture Collection, Manassas, VA) were maintained in Dulbecco’s modified Eagle’s medium containing 10% FBS and 100 U/mL penicillin and 100 μg/mL streptomycin in 75 cm^2 flasks. Forty-eight hours prior to transfection, the cells were maintained in phenol red free DMEM medium supplemented with 0.5% FCS, in a humidified atmosphere with 5% CO2 at 37 °C. For transfection, 0.5 × 10^5 cells were seeded per well of a 96-well plate in OPTI-MEM supplemented with dextran-charcoal stripped FBS. After 4 h, serum concentration was reduced to 1%. Prior to transfection, cells were washed with DMEM and incubated in phenol red-free OPTI-MEM without FBS as described by Nozawa et al. ([2005]).
The cells were transfected with the reporter vector pERE-TA-SEAP, coding for the SEAP gene (Clontech, Palo Alto, CA) (Cullen and Malim [1992]; Treeck et al. [2003]). MCF-7 cells were transfected using 0.5 μL Lipofectamine 2000 (Invitrogen, Carlsbad, CA), and 0.1 μg plasmid DNA including the SEAP vector per well of a 96-well plate according to the manufacturer’s instructions. As a negative control, cells were transfected with reporter vector pTA-SEAP2 using Lipofectamine 2000. After 12 h of transfection, the media were replaced with phenol-free Dulbecco’s modified Eagle’s medium containing 10% dextran-coated charcoal stripped FBS. Cells were treated with 1 μM 1–3 with and without 10 nM E2 or 1 μM ICI 182,780. Estradiol was used as the positive control and DMSO as the negative control. Cells were treated for 12 h, then the medium was harvested, centrifuged and 25 μL from each well was transferred to a new 96 well plate. The SEAP activity was measured using the Great EscAPe SEAP Chemiluminescence High-Throughput Detection Kit (Clontech, Palo Alto, CA) using a 96-well luminometer according to the manufacturer’s instructions. To assess novel mechanisms of action other than ER, we tested the extract and fractions in a HER2/neu tyrosine kinase assays (Barbacci et al. [2003]; HTScan HER2/ErbB2 kinase Assay Kit, Cell Signaling Tech., 96-well plates, high throughput), using the methods as described by the manufacturer.

[4] = system: MCF-7 cells; assay: Cell viability assay (CellTiter-Glo 2.0), MCF-7; type: cell-based; conditions: Homo sapiens, MCF7; MCF-7, 72 h; read-out: IC50 (cell growth)
Method: as §1

[5] = system: caspase 8 in MCF-7 cells; assay: Caspase-Glo 8 apoptosis assay in MCF-7 cells; type: cell-based, human; conditions: compound 2 at IC50 concentration (55 µg/mL), 2 h
Method: MCF-7 cells were seeded in triplicate at a density of 3.0 × 10^4 cells in 100 µL/well in opaque-walled 96-well plates. The cells were left to attach overnight in the plate. Compound 2 at 55 µg/mL was added to the test wells. Caspase-Glo® 8 Reagents (Promega Corporation, Madison, WI) were prepared according to manufacturer’s instruction and allowed to equilibrate to room temperature. The test plates containing treated cells as well as controls were removed from the incubator after 2 h of incubation and allowed to equilibrate to room temperature. A 100 μL volume of Caspase-Glo® 8 Reagent was added to each well of a 96-well plate containing 100 μL of cell culture medium (blank), non-treated cells (negative control) in culture medium, and treated cells in culture medium. The contents of wells were gently mixed using a plate shaker at 300–500 rpm for 30 s and incubated at room temperature for 1 h. The luminescence of each sample was read using the Synergy HT Plate reader (Biotek, Winooski, VT) and Gen5 1.11 software.

[6] = system: MCF-7 cells; assay: ApoTox-Glo triplex assay (viability, cytotoxicity, caspase 3/7) in MCF-7 cells; type: cell-based, human; conditions: MCF-7, 55 µg/mL
Method: Ninety-six (96) well assay plates containing MCF-7 cells in medium at a density of 1.0 × 10^4 cells in 100 µL/well in triplicate were set up. […] Plates were incubated appropriately before addition of 20 μL of viability/cytotoxicity reagent containing both GF-AFC substrate and bis-AAF-R110 substrate to all wells and briefly mixed by orbital shaking (300–500 rpm for ∼30 s). Plates were incubated for 30 min at 37 °C and fluorescence was measured at 400ex/505em (viability) and 485ex/520em (cytotoxicity). A 100 μL volume of Caspase-Glo® 3/7 reagent was added to all wells, briefly mixed by orbital shaking (300–500 rpm for ∼30 s), and incubated for 30 min at room temperature. Luminescence was measured using the Synergy HT Plate reader (Biotek, Winooski, VT) and Gen 5 1.11 software to detect caspase activation.

[7] = system: Bcl-2 and Bax mRNA in MCF-7 cells; assay: qPCR for apoptotic gene expression in MCF-7 cells; type: cell-based, human; conditions: MCF-7, at the IC50, 24 h
Method: MCF-7 cells were seeded at a density of 1 × 10^6 cells per well in a six-well plate and incubated overnight for cell attachment. […] Vehicle-treated control cells served as the negative control. The concentration and quality of RNA were determined by measuring absorbance at 260 nm and 280 nm on SynergyHT Take 3 session (Biotek, Winooski, VT) and Gen5 1.11 software.
Total RNA was reverse transcribed and amplified using Power SYBR Green RNA-to-CT 1-step kit (Applied Biosystems, Foster City, CA) as described by manufacturer using a Step-One Plus Real Time PCR System (Applied Biosystem, Foster City, CA). Briefly, each reaction was performed in triplicate in a 10 μL volume containing Power SYBR Green RT-PCR Mix (2×), 200 nM of each primers, RT Enzyme Mix (125×) and 100 ng RNA. The cycling conditions were as follows: 48 °C for 30 min, 95 °C for 10 min, followed by 50 cycles of 95 °C for 15 s and 60 °C for 1 min. PCR reaction specificity was confirmed by melt curve analysis at 95 °C for 15 s, 60 °C for 15 s, 95 °C for 15 s. The quantitation of gene expression was performed using β-actin as an endogenous control and relative to the calibrator (control cells) using the ΔΔCt method. Melting curves for each primer set were performed prior to the use of the primers.

[8] = biological target: T1, full-length ERβ (Homo sapiens, UniProt Q92731); assay: Competitive radioligand oestrogen receptor binding assay (3H-estradiol); conditions: 0.5 nM 3H-estradiol; tested at 20–100 μg/mL
T1 construct: host or cells: Sf9 insect cells
Method: A competitive radioligand-binding assay using full-length ERβ was used in the bioassay-guided fractionation of the crude methanol extract. The assay was performed as previously described (Obourn et al. [1993]; Doyle et al. [2009]). Briefly, recombinant human oestrogen receptor from insect Sf9 cells (α or β) was incubated with the test sample (50 μg/mL) plus 0.5 nM 3H-estradiol at 4 °C overnight. At the completion of incubation, 100 μL of a 50% hydroxylapatite slurry (in […] Tris, pH 7.4, 1 mM EDTA, 1 mM EGTA) was added and allowed to bind the ER-ligand complex for 40 min. The hydroxylapatite was washed three times with 0.5 mL of 40 mM Tris, pH 7.4, 1 mM EDTA, 1 mM EGTA and 11 mM KCl. The hydroxylapatite pellets were suspended in 1 mL of ethanol and counted in 5 mL of scintillation fluid, and the receptor-bound 3H-estradiol was measured. […] The median inhibitory concentration of 1 was determined by testing at concentrations of 20–100 μg/mL. All tests were performed in triplicate, and the results were determined from three independent experiments.

T1 sequence (Q92731 whole entry): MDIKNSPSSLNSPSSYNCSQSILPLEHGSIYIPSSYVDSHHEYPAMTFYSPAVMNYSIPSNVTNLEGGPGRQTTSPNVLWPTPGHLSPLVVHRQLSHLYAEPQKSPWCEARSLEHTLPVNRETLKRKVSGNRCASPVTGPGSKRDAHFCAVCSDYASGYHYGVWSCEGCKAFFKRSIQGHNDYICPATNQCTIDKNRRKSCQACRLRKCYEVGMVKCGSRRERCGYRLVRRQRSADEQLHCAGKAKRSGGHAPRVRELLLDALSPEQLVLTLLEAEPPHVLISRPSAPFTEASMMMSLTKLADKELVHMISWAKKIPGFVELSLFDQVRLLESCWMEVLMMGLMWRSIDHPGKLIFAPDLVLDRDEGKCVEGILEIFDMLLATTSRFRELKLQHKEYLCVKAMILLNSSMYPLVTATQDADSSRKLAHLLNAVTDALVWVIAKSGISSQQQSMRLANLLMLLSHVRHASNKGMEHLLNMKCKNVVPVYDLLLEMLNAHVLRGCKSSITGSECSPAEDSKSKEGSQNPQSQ

SMILES | IC50 [1] | IC50 [2] | fold increase in SEAP expression [3] | SEAP reporter gene expression/activity, compound alone [3] | IC50 [4] | caspase 8 activity [5] | apoptosis in MCF-7 cells [6] | Bax mRNA expression [7] | Bax/Bcl-2 ratio [7] | Bcl-2 mRNA expression [7] | IC50 [8] | SEAP activity in combination with E2 [3] | SEAP expression in the presence of ICI 182,780 ([3]; 1 μM compound + 1 μM ICI 182,780)
COc1cccc2c1C(=O)c1c(O)c3c(c(O)c1C2=O)C[C@@](O)(C(=O)CO)C[C@@H]3O[C@H]1C[C@H](N)[C@H](O)[C@H](C)O1 [Doxo, doxorubicin, reference compound] | 0.079 µg/mL | 0.048 µg/mL | – | – | – | – | – | – | – | – | – | – | –
Cc1c(O)c(C)c2oc(-c3ccc(OC4OC(CO)C(O)C(O)C4O)cc3)cc(=O)c2c1O (stereo not shown) [Compound 2, syzalterin-4′-O-glucopyranose] | 38.1 µg/mL | 51.2 µg/mL | 6.0 fold | significantly increased SEAP activity | 54.3 µg/mL | weakly enhanced | induced apoptosis | little effects | ~3.5 | decreased | – | – | –
O=c1[nH]cc(F)c(=O)[nH]1 [Compound 5FU, 5-fluorouracil, reference compound] | 18.6 µg/mL | 0.097 µg/mL | – | – | 1.37 µg/mL | – | – | – | – | – | – | – | –
Cc1c(O)c(C)c2oc(Oc3ccc(O)cc3)cc(=O)c2c1O [Compound 1, 2-(p-hydroxyphenoxy)-6,8-dimethyl-5,7-dihydroxychromone] | > 100 µg/mL | > 100 µg/mL | 6.2 fold | significantly enhanced | > 100 µg/mL | – | – | – | – | – | 390 µM | did not enhance SEAP activity | attenuated
C[C@@H]1O[C@@H](Oc2c(-c3ccc(O)c(O)c3)oc3cc(O)cc(O)c3c2=O)[C@H](O)[C@H](O)[C@H]1O [Quercitrin] | > 100 µg/mL | > 100 µg/mL | – | neither quercitrin nor 3 alone significantly enhanced SEAP activity | > 100 µg/mL | – | – | – | – | – | – | some significant anti-oestrogenic effects | –

— paper PMC6130578, “Isolation and identification of three new chromones from the leaves of Pimenta dioica with cytotoxic, oestrogenic and anti-oestrogenic effects” (Pharmaceutical Biology, 2018)
